# According to the METLIN SMRT retention time set (Domingo-Almenara et al. 2019):
# Assay: gradient 5% acetonitrile 3 min, to 50% in 2 min, to 85% in 15 min, held 3 min, 100 µL/min
# Settings: column: Zorbax Extend-C18 2.1 x 50 mm; eluents: water / acetonitrile, 0.1% formic acid
# Procedure, shortened: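 A Zorbax Extend-C18 column (2.1 × 50 mm, 1.8 μm) run at 100 μL/min with water and acetonitrile, both containing 0.1% formic acid, separated mixtures of ~100 pure standards. The HPLC was coupled to a quadrupole time-of-flight mass spectrometer operated in positive and negative ionization mode, with dead and dwell volumes of 40 μL and 900 μL. Each retention time was taken from a computationally picked adduct peak that was then manually inspected.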
row,SMILES,RP-LC retention time [s]
1,O=C(Cn1cccc1-c1nc(-c2ccccc2)cs1)N1CCC(N2CCCCC2)CC1,716
2,Cc1cccc(-c2ncccc2CNS(=O)(=O)c2cccs2)c1,677
3,CCc1ccc(C(=O)Nc2nnc(SCc3nnc(-c4ccccc4)o3)s2)cc1,1000
4,O=C(Cn1cnc2nc3c(cc2c1=O)CCCC3)N1CCN(c2ccccc2)CC1,748
5,O=C(NCc1ccc(F)cc1F)c1ccc(NC(=O)C2CC2)cc1N1CCOCC1,798
6,CCn1cc(C(=O)NC2CCN(c3ccc(=O)n(CCOc4ccccc4)n3)C2)cn1 (stereo not given),692
7,COc1ccc(OC)c(NC(=O)CN2C(=O)COc3ccc(C(=O)N4CCCC4)cc32)c1,682
8,COc1ccccc1-c1nc(Cn2ccn3nc(-c4ccc5c(c4)OCO5)cc3c2=O)c(C)o1,960
9,COc1ccc(OC)c(CNC(=O)c2cccc3c2SCCC3=O)c1,801
10,Cc1noc(C)c1-c1ccc(S(=O)(=O)Nc2ccc(F)c(Cl)c2)cc1,969
11,Cc1ccc2c(Nc3cc(F)ccc3C)c(-c3nc(C)no3)cnc2n1,784
12,O=C(CSc1nnc(-c2ccc3c(c2)OCO3)o1)N1CCc2ccccc2C1,990
13,COc1ccccc1CC(=O)NC1CCN(Cc2c(C)noc2C)C1 (stereo not given),584
14,CCS(=O)(=O)N1CCCc2cc(C(=O)NCC(C)C)ccc21,808
15,Cc1ccc(NC(=O)Cn2cc(C(=O)N3CCCC3)c(=O)c3ccc(C)nc32)cc1,713
16,Cc1ccc(-c2ccc(N3CCN(c4ccccn4)CC3)nn2)cc1S(=O)(=O)N1CCC(C)CC1,743
17,O=C(Cc1cccs1)N1CCN(c2ccc(=O)n(-c3cccc(Cl)c3)n2)CC1,822
18,O=C(O)c1ccc(Nc2c(-c3cccc(Cl)c3)nc3cnccn23)cc1,714
19,Cn1c(CCN2C(=O)C3(CCOCC3)CC2c2nnnn2C(C)(C)C)nc2ccccc21 (stereo not given),578
20,Cc1ccc(N2CCC(NC(=O)NC3CCCC3)C2=O)cc1C (stereo not given),788
21,COc1cccc(CNC(=O)C2CCN(C(=O)c3n[nH]c4ccccc34)CC2)c1,641
22,CCN1CCN(c2nccc(-c3cnc4nc(-c5cccnc5)nn4c3C)n2)CC1,574
23,COc1ccc(F)cc1S(=O)(=O)N1CCC2(CC1)NCCCN=C2NC1CCCC1,607

row,SMILES,RP-LC retention time [s]
1,Cc1ccsc1C(=O)Nc1cnc(-c2cccc(Cl)c2)nc1,1130
2,COc1ccc(-c2noc(C3CCCN3C(=O)Nc3ccc(C)c(C)c3)n2)cc1 (stereo not given),925
3,Cc1ccc(CNC(=O)c2ccc(Cn3nc(N4CCN(c5ccccc5)CC4)ccc3=O)o2)o1,706
4,O=C(Cn1c(=O)c2cccn2c2ccc(F)cc21)NCCc1c[nH]c2ccccc12,834
5,COCc1noc(C2CCCCN2CC(=O)Nc2nccs2)n1 (stereo not given),720
6,O=C(CN1C(=O)CCC1=O)N1CCC(Oc2nc3ccc(F)cc3s2)CC1,734
7,O=C(NCc1ccco1)C1CCN(c2ccc3nnc(-c4ccccc4F)n3n2)CC1,708
8,O=C(C1CCN(S(=O)(=O)c2cc(-c3noc(C4CC4)n3)cs2)CC1)N1CCCC1,829
9,O=C(Nc1nc(-c2cccnc2)cs1)c1ccc(Br)s1,654
10,O=C(NCc1ccco1)c1c(-c2ccccc2)nnc2ccccc12,756
11,CCC(C)NC(=O)N1CC(Oc2cccc(-c3nc(C)no3)c2)C1 (stereo not given),801
12,Cn1nccc1C(=O)N1CCCC1c1nc(-c2cccc(C(F)(F)F)c2)no1 (stereo not given),940
13,O=C(O)c1nnn(-c2ccc3c(c2)OCCO3)c1-c1cccnc1,568
14,CSc1ccc(NC(=O)C2c3ccccc3Oc3ccccc32)nn1,907
15,Cc1cc2nn(CC(=O)Nc3ccccc3C)c(=O)n2c(-c2ccc(F)cc2)n1,796
16,CCC(Oc1ccc(=O)n(-c2ccc(F)cc2)n1)C(=O)NCCCOC (stereo not given),677
17,Cn1nc(-c2ccccc2)nc1C1CN(C(=O)Nc2ccccc2C(F)(F)F)C1,807
18,COCC(=O)NC1CCN(c2ccccc2)C1=O (stereo not given),617
19,COc1cccc(COc2cn(C)c(C(=O)N3CCN(c4ncccn4)CC3)cc2=O)c1,605
20,CCC(=O)Nc1ccc(CCc2nc3ccc(C(=O)NCC4CCCO4)cc3[nH]2)cc1 (stereo not given),592
21,CNC(=O)c1cc(C(C)(C)C)[nH]n1,618
22,CCOC(=O)c1nc(Nc2ccc(C(=O)OC(C)C)cc2)c2ccccc2n1,989
